Assay: Crossover PK study: sumatriptan plasma levels (LC/MS/MS) after ID, junctional or SC administration; Tmax, Cmax, AUC, relative F
Format: in vivo
Conditions: Yucatan miniswine, mean; for AUC 0-10 min: Yucatan, minipig, plasma, AUC 10 min.
[1] = 3 × 3 mm × 34 g, 12 mg/ml, 5 minutes metered bolus
[2] = SC, 12 mg/ml (reference condition)

C max (1 × 2 mm × 30 g, 30 mg/ml): 849.333 ng/mL | C max (1 × 3 mm × 30 g, 30 mg/ml): 836.667 ng/mL | C max [1]: 705.833 ng/mL | rel. F 10 min [2]: 100.000% | rel. F Total [2]: 100.000% | AUC 0-10 min (1 × 1.5 mm × 30 g, 0 mg/ml): 84.7 ng·h/mL | AUC 0-10 min (1 × 2 mm × 30 g, 30 mg/ml): 75.2 ng·h/mL | AUC 0-10 min (1 × 3 mm × 30 g, 30 mg/ml): 86.4 ng·h/mL | AUC 0-10 min (3 × 2 mm × 34 g, 30 mg/ml): 69.5 ng·h/mL | AUC 0-10 min [1]: 52.8 ng·h/mL | AUC 0-10 min (3 × 3 mm × 34 g, 30 mg/ml, 2 minute metered bolus): 53.4 ng·h/mL | AUC 0-10 min (iv, 12 mg/ml): 59.8 ng·h/mL | AUC 0-10 min (sc, 12 mg/ml): 45.3 ng·h/mL
Structure (SMILES): CNS(=O)(=O)Cc1ccc2[nH]cc(CCN(C)C)c2c1 [sumatriptan, 3-[2-(dimethylamino)ethyl]-N-methyl-indole-5-methanesulfonamide]

— US20050256182A1, “Formulations of anti-pain agents and methods of using the same” (priority 2004, published 2005)
